Measured values as given in ChEMBL document CHEMBL5233259, “Medicinal chemistry strategies for the development of protein tyrosine phosphatase SHP2 inhibitors and PROTAC degraders” (Eur J Med Chem, 2020).
One block for each molecule: values may come before it.

Experiments:
[1] = target: T1, Tyrosine-protein phosphatase non-receptor type 11 (Homo sapiens, UniProt Q06124); assay: Inhibition of SHP2 ( 1 to 525 residues) (unknown origin)
T1 sequence (Q06124 whole entry): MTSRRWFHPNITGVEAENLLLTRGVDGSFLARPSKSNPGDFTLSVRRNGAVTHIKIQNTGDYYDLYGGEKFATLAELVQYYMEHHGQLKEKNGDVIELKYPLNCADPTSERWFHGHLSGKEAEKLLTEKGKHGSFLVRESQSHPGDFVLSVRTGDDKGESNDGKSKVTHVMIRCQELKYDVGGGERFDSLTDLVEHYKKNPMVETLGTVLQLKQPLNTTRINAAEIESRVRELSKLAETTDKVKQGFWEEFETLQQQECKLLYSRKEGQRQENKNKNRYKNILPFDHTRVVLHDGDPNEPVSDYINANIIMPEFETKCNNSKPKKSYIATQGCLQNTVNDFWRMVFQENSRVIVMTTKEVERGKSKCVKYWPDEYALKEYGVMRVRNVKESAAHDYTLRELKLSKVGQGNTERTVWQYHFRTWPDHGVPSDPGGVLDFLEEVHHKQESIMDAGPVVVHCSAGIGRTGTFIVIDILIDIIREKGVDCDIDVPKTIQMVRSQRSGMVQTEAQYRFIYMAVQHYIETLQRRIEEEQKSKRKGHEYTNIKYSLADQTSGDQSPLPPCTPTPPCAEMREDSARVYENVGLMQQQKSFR

[2] = target: T2, Tyrosine-protein phosphatase non-receptor type 6 (Homo sapiens, UniProt P29350); assay: Inhibition of SHP1 (unknown origin)
[3] = target: T3, Tyrosine-protein phosphatase non-receptor type 1 (Homo sapiens, UniProt P18031); assay: Inhibition of PTP1B (unknown origin)
T3 sequence (P18031 whole entry): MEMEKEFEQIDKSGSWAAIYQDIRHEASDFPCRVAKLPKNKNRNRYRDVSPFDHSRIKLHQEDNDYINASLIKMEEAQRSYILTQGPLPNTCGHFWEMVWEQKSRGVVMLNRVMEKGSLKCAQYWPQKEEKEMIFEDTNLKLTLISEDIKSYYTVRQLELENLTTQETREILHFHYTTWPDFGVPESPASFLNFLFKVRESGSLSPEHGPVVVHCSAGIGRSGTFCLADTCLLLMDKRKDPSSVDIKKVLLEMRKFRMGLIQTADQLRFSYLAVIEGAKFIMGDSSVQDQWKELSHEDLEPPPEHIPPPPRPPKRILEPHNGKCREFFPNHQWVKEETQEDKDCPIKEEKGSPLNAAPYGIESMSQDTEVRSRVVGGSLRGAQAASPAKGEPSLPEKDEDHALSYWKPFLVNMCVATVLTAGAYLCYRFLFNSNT

[4] = target: T3, Tyrosine-protein phosphatase non-receptor type 1; assay: Inhibition of recombinant GST-fused human PTP1B (1 to 435 residues) using DiFMUP as substrate incubated for 30 mins by fluorescence based assay
[5] = target: T2, Tyrosine-protein phosphatase non-receptor type 6
Description: Inhibition of recombinant GST-fused human SHP1 (205 to 597 residues) using DiFMUP as substrate incubated for 30 mins by fluorescence based assay

[6] = target: T1, Tyrosine-protein phosphatase non-receptor type 11
Description: Inhibition of SHP2 (unknown origin)

T2 sequence (P29350 whole entry): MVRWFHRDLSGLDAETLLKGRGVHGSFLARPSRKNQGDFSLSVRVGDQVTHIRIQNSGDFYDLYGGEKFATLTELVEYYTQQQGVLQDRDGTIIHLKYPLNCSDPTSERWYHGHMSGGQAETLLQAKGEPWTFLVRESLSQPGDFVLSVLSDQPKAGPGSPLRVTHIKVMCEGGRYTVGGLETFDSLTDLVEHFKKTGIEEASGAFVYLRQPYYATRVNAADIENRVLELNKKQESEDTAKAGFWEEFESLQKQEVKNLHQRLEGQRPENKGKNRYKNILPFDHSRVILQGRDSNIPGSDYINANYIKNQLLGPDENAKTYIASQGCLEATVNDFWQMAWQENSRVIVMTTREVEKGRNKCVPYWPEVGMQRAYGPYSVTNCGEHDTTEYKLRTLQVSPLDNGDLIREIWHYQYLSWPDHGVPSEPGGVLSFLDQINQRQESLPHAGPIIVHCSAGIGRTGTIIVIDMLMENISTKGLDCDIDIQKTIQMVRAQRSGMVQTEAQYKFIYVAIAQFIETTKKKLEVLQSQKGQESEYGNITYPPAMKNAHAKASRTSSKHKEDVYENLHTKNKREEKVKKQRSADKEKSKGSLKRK

SMILES: COc1cccc(-c2nnc3n(Cc4ccccc4Cl)c(=O)c4ccccc4n23)c1O
- IC50 [1]: 60 µM

- IC50 [2]: 30 µM
- IC50 [3]: 19 µM
SMILES: O=C1/C(=N\Nc2ccc(S(=O)(=O)O)cc2)C(c2ccc([N+](=O)[O-])cc2)=NN1c1ccccc1

SMILES: O=S(=O)(O)c1ccc2cc(/N=N/c3cc(S(=O)(=O)O)c4cccnc4c3O)ccc2c1
- IC50 [4]: 1.69 µM
- IC50 [5]: 0.355 µM

- IC50 [6]: 0.8 µM
SMILES: O=C1Nc2ccc(S(=O)(=O)O)cc2/C1=N/Nc1ccccc1[N+](=O)[O-]
